# Results from patent publication US8013047B2, “Oligo- and poly-carbonates terminated with silicon containing groups as surface modifiers” (priority 2005, dated 2011).
# What was measured:
# [1] = system: Staphylococcus aureus ATCC 6538; test: Adhesion of microbes onto polycarbonate extrusion sheets (microtiterplate immunological assay); format: cell-based; conditions: 5% Tinuvin 1577 alone in polycarbonate sheet; residual adhesion relative to control = 100%; 60 min incubation
# Procedure: (§1) A polycarbonate powder [Makrolon 3108 FBL (RTM) from Bayer] is dried in a vacuum oven for eight hours at 120° C. Appropriate amounts of each compound of the formula I is added to the dried polycarbonate powder to obtain formulations containing up to 10% by weight of the compound of the formula I. The formulations are mixed in a Grindo Mix GM 200 and compounded to pellets in a twin-screw extruder (Haake DS16-L/D25 from Thermo Electron Corporation) and further extruded to sheets with a width of 110 mm and thickness of 0.2 mm using a single-screw extruder equipped with a flat die (Collin CR-136/350). The processing temperature is around 280° C. All produced sheets have a transparent visual appearance.
# In order to measure the reduced adhesion of microbes onto polymer surfaces the following testing procedure is applied:
# The test system is microtiterplate based and is conducted according to the method described in Nature Medicine Vol. 6, No. 8, 1053-1056. Samples equipped with active compounds and untreated control samples are prepared to obtain a same sample size of max. 7×4 mm. […] The microbial cells adhering to the pieces are detected in an immunological assay using specific antibodies against the test strain, which are then detected […]. […]
# [2] = Contact angle of extrusion tapes, compounds as bulk material or additive (sessile drop, water); format: physicochemical; conditions: 5% Tinuvin 1577 in 95% Makrolon 3108 FBL, extrusion tape
# Procedure: Appropriate amounts of each compound of the formula I are dried in a vacuum oven for eight hours at 120° C. They are extruded in a twin-screw extruder (MiniLab extruder from Thermo Electron Corporation) equipped with a flat die. In this way, tapes are produced with a width of 5 mm and a thickness of around 0.5 mm. The processing temperature is around 280° C. All produced tapes have a transparent visual appearance. The contact angle of the produced tapes are measured with a Dataphysics OCA 30 contact angle device, using the sessile drop method and water as measuring liquid.
# [3] = Contact angle of polycarbonate extrusion sheets (sessile drop, water); format: physicochemical; conditions: 5% Tinuvin 1577 alone in polycarbonate extrusion sheet
# Procedure: as §1
# The surface properties were evaluated by measuring the contact angle of the polycarbonate sheets described in Example 16 with a Dataphysics OCA 30 contact angle device, using the sessile drop method and water as measuring liquid.
compound,measurement,setting,value
CCCCCCOc1ccc(-c2nc(-c3ccccc3)nc(-c3ccccc3)n2)c(O)c1 [Tinuvin 1577],Adhesion of Staphylococcus aureus ATCC 6538 on polycarbonate in %,[1],104%
same,Contact angle (°),[2],86 °
same,Contact angle (°),[3],86 °
